The values that follow come from paper PMC6747015, “Structure–function study of a novel inhibitor of the casein kinase 1 family in Arabidopsis thaliana” (Plant Direct, 2019).

What is called IC50 is the concentration that gives 50% inhibition.

In one assay the target is T1, Recombinant CKL4 kinase (Arabidopsis thaliana, UniProt Q8LPI7).
T1 sequence (Q8LPI7 1-414): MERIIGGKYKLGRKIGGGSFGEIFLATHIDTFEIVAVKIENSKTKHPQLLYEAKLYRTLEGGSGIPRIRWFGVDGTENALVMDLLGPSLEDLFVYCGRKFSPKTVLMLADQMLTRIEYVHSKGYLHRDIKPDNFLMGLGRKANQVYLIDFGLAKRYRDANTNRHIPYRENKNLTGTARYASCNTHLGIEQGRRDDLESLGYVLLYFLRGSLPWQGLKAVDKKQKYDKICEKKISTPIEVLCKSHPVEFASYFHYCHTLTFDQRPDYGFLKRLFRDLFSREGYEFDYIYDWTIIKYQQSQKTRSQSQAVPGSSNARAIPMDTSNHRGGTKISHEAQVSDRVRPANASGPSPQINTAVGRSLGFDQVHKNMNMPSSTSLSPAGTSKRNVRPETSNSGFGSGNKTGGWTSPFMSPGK
Description: In vitro phosphorylation assay of CKL4 (32P phosphorylation of casein). The note with it: recombinant CKL4, casein, 32P‐ATP, 37°C for 2 hr; read-out: IC50 for in vitro CKL4 kinase activity. In kind it is biochemical. The procedure: In vitro phosphorylation assays using recombinant CKL4 were performed as described previously (Uehara et al., 2019), with synthetic small molecules. IC261 and PF‐670462 were purchased (Sigma‐Aldrich catalog numbers I0658 and SML0795, respectively). PHA767491 was synthesized as previously described (Uehara et al., 2019). All chemical compounds were dissolved in dimethyl sulfoxide (DMSO) as 10 mM stock solutions. Stock solutions were diluted with DMSO to the working concentration and added to assays in kinase reaction buffer (Uehara et al., 2019).
The activities of three known CK1 inhibitors were measured in vitro by a previously reported method (Uehara et al., 2019). Recombinant CKL4 kinase, casein, ^32P‐ATP, and different concentrations of the inhibitors were combined in a reaction buffer and kept at 37°C for 2 hr. Resulting samples were separated on a polyacrylamide gel by electrophoresis, and ^32P phosphorylation of casein was measured as an indicator of CKL4 kinase activity. IC50 (half‐maximal inhibitory concentration) was determined by calculating the results from at least two independent experiments. […] The stronger in vitro CK1 inhibitory activity shown by PF‐670462 relative to PHA767491 was consistent with previous reports (Uehara et al., 2019).

Another assay deals with T2, CKL8 (AT5G43320) (Arabidopsis thaliana, UniProt Q9LSX4).
T2 construct: from tissue; host or cells: Arabidopsis seedlings, two weeks old
As to the kind of experiment: AMI‐329 bead binding with AMI‐331 competitor, CKL8. The procedure: Screening for proteins bound to AMI‐329 beads was done by a method similar to what has previously been described (Uehara et al., 2019). Briefly, two‐week‐old seedlings grown under LD conditions were harvested at time points ZT2, ZT6, ZT9, and ZT17, and stored at −80°C. Proteins from the frozen plant samples were incubated with 0, 5, or 50 µM of AMI‐331 at 4°C for 30 min with rotary mixing. Two technical replicates were used for each experiment. PBS‐washed AMI‐329 beads were added to the protein samples and gently rotated at 4°C for 1 hr. AMI‐329 bead resins were washed with bead buffer (Uehara et al., 2019) six times. The washed resins were suspended in SDS sample buffer and boiled for 8 min. Protein samples were in‐gel‐digested as previously described (Uehara et al., 2019). Peptides were analyzed with a Q Exactive hybrid quadrupole‐orbitrap mass spectrometer (Thermo Fisher Scientific), as described previously (Uehara et al., 2019). […]
However, another possible mechanism for the strong AMI‐331 biological activity in vivo is that it targets proteins other than the CK1 family for period lengthening. […] It is noteworthy that kinase AT4G08800 is very similar to the CKL family, but the ATP‐binding pocket of mammalian CK1 as determined by its crystal structure (Shinohara et al., 2017) was absent from AT4G08800, as shown in an Araport 11 model (https://www.araport.org). […]

T2 sequence (Q9LSX4 whole entry): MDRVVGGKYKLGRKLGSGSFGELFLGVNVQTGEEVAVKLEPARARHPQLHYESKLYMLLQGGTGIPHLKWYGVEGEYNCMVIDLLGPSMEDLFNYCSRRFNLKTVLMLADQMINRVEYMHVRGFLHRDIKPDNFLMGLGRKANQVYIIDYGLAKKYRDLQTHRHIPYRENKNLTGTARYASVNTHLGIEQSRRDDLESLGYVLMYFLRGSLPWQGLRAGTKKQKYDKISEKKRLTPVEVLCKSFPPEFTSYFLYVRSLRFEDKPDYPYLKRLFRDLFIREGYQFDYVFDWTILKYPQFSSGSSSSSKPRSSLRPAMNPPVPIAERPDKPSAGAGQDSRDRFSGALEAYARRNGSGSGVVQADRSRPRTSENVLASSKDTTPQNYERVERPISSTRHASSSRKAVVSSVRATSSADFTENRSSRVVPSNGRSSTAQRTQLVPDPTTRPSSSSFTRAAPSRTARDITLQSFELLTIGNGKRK

Consider `C#CCn1c2c(c(Br)c1-c1ccncc1)C(=O)NCC2.Cl` [AMI‐331], for which, at Recombinant CKL4 kinase, the IC50 worked out at 700 nM. Also, the “Spectra (PSMs) AMI‐329 beads bound” value on CKL8 (AT5G43320) (competitor AMI‐331 5 µM) and on CKL8 (AT5G43320) (competitor AMI‐331 50 µM) was 0 PSMs throughout.
